Some test systems named below: A498; CAKI-1; CCRF-CEM; HCT-116; M14; MCF7; MDA-MB-435; NCI-H226; NCI/ADR-RES; OVCAR-4; SF-295; SK-MEL-2; SK-MEL-5; SK-OV-3; SN12C; SNB-75; T47D; U-251; UACC-62; UO-31.
Assay in all cases: inhibition of tumour cell growth, NCI panel, 48 h

Each structure is given as a SMILES string.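 Values below derive from 48-hour exposures of cells grown in 96-well plates, with endpoints linearly interpolated between the two concentrations bracketing the appropriate inhibition level. Abbreviation: GI50, concentration required for 50% inhibition of growth.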 Calls of active or inactive are those of the source. No stated cut-off is given here; in the data, active = GI50 up to about 1.1 µM and inactive = higher.

For the compound `CN(C)C(=O)N1N[C@H](c2ccccc2)[C@@H]1c1ccccc1`, the GI50 with A498, with CAKI-1, with CCRF-CEM, in the assay on HCT-116, in the assay on M14 and in the assay with MCF7 was > 100 µM (inactive) throughout. Further, the GI50 in the assay on MDA-MB-435 was > 100 µM (inactive); with NCI-H226, > 100 µM (inactive); with NCI/ADR-RES it was > 100 µM (inactive); in the assay with OVCAR-4, > 100 µM (inactive); with SF-295 it was 72.3 µM (inactive); with SK-MEL-2, > 100 µM (inactive). Also, the GI50 in the assay on SK-MEL-5, with SK-OV-3, in the assay with SN12C, with SNB-75, in the assay with T47D and in the assay on U-251 was > 100 µM (inactive) throughout. Further, the GI50 in the assay with UACC-62 and in the assay with UO-31 was > 100 µM (inactive) throughout.

With `BrCc1ccc2ccc3ccc(CBr)nc3c2n1`, the GI50 was 2.64 µM (inactive) in the assay with A498; 3.55 µM (inactive) in the assay with CAKI-1; 0.995 µM (active) in the assay on CCRF-CEM; 2.34 µM (inactive) in the assay with HCT-116; 2.85 µM (inactive) with M14; 1.88 µM (inactive) in the assay with MCF7. Further, the GI50 in the assay on MDA-MB-435 is 4.12 µM (inactive); in the assay with NCI-H226, 5.92 µM (inactive); in the assay with NCI/ADR-RES, 1.86 µM (inactive); in the assay with OVCAR-4 it was 3.5 µM (inactive); in the assay on SF-295, 10.4 µM (inactive); in the assay on SK-MEL-2, 3.12 µM (inactive). In addition, the GI50 with SK-MEL-5 is 2.77 µM (inactive); with SK-OV-3, 3.08 µM (inactive); with SN12C, 2 µM (inactive); with SNB-75 it was 1.32 µM (inactive); in the assay on T47D, 1.42 µM (inactive); with U-251, 5.56 µM (inactive). In addition, the figures for the GI50 with UACC-62 and with UO-31 were 3.26 µM (inactive) and 2.12 µM (inactive), respectively.

Take `CC(C)C(OC(=O)c1ccc(NCC2=CC(=O)C=CC2=O)cc1)C(C)C`: the GI50 in the assay with A498 was 9.12 µM (inactive); with CAKI-1, 1.4 µM (inactive); with CCRF-CEM, 0.474 µM (active); in the assay with HCT-116 it was 11.7 µM (inactive); with M14, 6.52 µM (inactive); with MCF7, 7.93 µM (inactive). Further, the GI50 in the assay on MDA-MB-435 is 4.75 µM (inactive); in the assay on NCI-H226, 4.24 µM (inactive); in the assay on NCI/ADR-RES, 4.3 µM (inactive); with OVCAR-4, 3.64 µM (inactive); in the assay with SF-295, 13.2 µM (inactive); in the assay with SK-MEL-2 it was 11.6 µM (inactive). In addition, the GI50 with SK-MEL-5 was 10.6 µM (inactive); in the assay with SK-OV-3, 13.8 µM (inactive); in the assay with SN12C it was 9.16 µM (inactive); with SNB-75 it was 4.35 µM (inactive); with T47D, 2.1 µM (inactive); with U-251, 3.32 µM (inactive). Moreover, the GI50 in the assay with UACC-62 is 6.44 µM (inactive); with UO-31 it was 1.82 µM (inactive).

Take `Cc1cn([C@@H]2O[C@H](CO)[C@@H](O)[C@@H]2O)c(=O)[nH]c1=O`: the GI50 in the assay with A498, with CAKI-1, with CCRF-CEM, in the assay with HCT-116, in the assay with M14 and in the assay with MCF7 was > 1000 µM (inactive) in each case. Besides, the GI50 in the assay with MDA-MB-435, in the assay on NCI-H226, in the assay on NCI/ADR-RES, with OVCAR-4, in the assay with SF-295 and in the assay on SK-MEL-2 was > 1000 µM (inactive) throughout. Also, the GI50 with SK-MEL-5, with SK-OV-3, with SN12C, in the assay with SNB-75, in the assay on T47D and in the assay with U-251 was > 1000 µM (inactive) throughout. The GI50 with UACC-62 and in the assay on UO-31 was > 1000 µM (inactive) each time.

For `CN1C=Cc2nccc3cc4c(c1c23)OCO4`, the GI50 with A498 is 4 µM (inactive); in the assay with CAKI-1, 0.986 µM (active); in the assay on CCRF-CEM, 1.39 µM (inactive); with HCT-116, 1.5 µM (inactive); with M14, 3.56 µM (inactive); in the assay on MCF7, 3.03 µM (inactive). Besides, the GI50 is 3.25 µM (inactive) in the assay with MDA-MB-435; 2.83 µM (inactive) in the assay on NCI-H226; 11.9 µM (inactive) in the assay with NCI/ADR-RES; 5.22 µM (inactive) in the assay with OVCAR-4; 1.86 µM (inactive) in the assay with SF-295; 3.18 µM (inactive) in the assay on SK-MEL-2. The GI50 in the assay with SK-MEL-5 is 2.06 µM (inactive); in the assay with SK-OV-3, 8.39 µM (inactive); in the assay with SN12C it was 1.64 µM (inactive); in the assay with SNB-75, 1.49 µM (inactive); with T47D, 6.82 µM (inactive); in the assay on U-251, 3.09 µM (inactive). Also, the values for the GI50 in the assay with UACC-62 and in the assay on UO-31 were 1.36 µM (inactive) and 2.96 µM (inactive), respectively.

Consider `c1ccc(COC2NCCN2Cc2ccccc2)cc1` (stereo not given), for which the GI50 in the assay on A498 was 41.7 µM (inactive); in the assay with CAKI-1, > 100 µM (inactive); with CCRF-CEM, > 100 µM (inactive); in the assay with HCT-116, > 100 µM (inactive); in the assay with M14 it was > 100 µM (inactive); in the assay with MCF7 it was > 100 µM (inactive). The GI50 is > 100 µM (inactive) in the assay on MDA-MB-435; > 100 µM (inactive) with NCI-H226; 84.5 µM (inactive) with NCI/ADR-RES; > 100 µM (inactive) with OVCAR-4; > 100 µM (inactive) with SF-295; > 100 µM (inactive) in the assay on SK-MEL-2. Also, the GI50 with SK-MEL-5 was > 100 µM (inactive); in the assay with SK-OV-3, > 100 µM (inactive); with SN12C, > 100 µM (inactive); in the assay with SNB-75 it was 97.7 µM (inactive); in the assay on T47D, > 100 µM (inactive); in the assay on U-251, > 100 µM (inactive). For the same compound, the values for the GI50 with UACC-62 and in the assay on UO-31 were 63.2 µM (inactive) and > 100 µM (inactive), respectively.

As to `C[n+]1c2ccccc2n2c3ccccc3c(NCCCN3CCOCC3)c(C#N)c21`, the GI50 was 8.87 µM (inactive) in the assay on A498; 2.45 µM (inactive) in the assay on CAKI-1; 8.17 µM (inactive) in the assay with CCRF-CEM; 0.703 µM (active) in the assay on HCT-116; 2.4 µM (inactive) in the assay with M14; 0.564 µM (active) with MCF7. Further, the GI50 in the assay on MDA-MB-435 is 1.78 µM (inactive); in the assay on NCI-H226, 1.86 µM (inactive); in the assay with NCI/ADR-RES, > 41.4 µM (inactive); in the assay on OVCAR-4, 1.56 µM (inactive); in the assay with SF-295, 2.8 µM (inactive); in the assay with SK-MEL-2, 1.91 µM (inactive). The GI50 in the assay with SK-MEL-5 was 2 µM (inactive); in the assay on SK-OV-3, 2.5 µM (inactive); in the assay with SN12C, 0.597 µM (active); with SNB-75, 2.23 µM (inactive); with T47D it was 2.32 µM (inactive); with U-251 it was 1.52 µM (inactive). The GI50 was 3.03 µM (inactive) in the assay on UACC-62 and 2.95 µM (inactive) in the assay with UO-31.

Consider `CC(C)(C)OC(=O)c1ccc(NCc2cc(O)ccc2O)cc1`, for which the GI50 in the assay with A498 was 9.68 µM (inactive); in the assay with CAKI-1, 0.676 µM (active); with CCRF-CEM, 0.363 µM (active); in the assay with HCT-116 it was 3.49 µM (inactive); with M14, 1.94 µM (inactive); with MCF7, 3.61 µM (inactive). Further, the GI50 in the assay on MDA-MB-435 was 2.96 µM (inactive); in the assay on NCI-H226, 2.22 µM (inactive); with NCI/ADR-RES, 1.73 µM (inactive); in the assay with OVCAR-4, 1.75 µM (inactive); in the assay with SF-295, 7.41 µM (inactive); with SK-MEL-2, 4.34 µM (inactive). Further, the GI50 in the assay on SK-MEL-5 was 3.65 µM (inactive); in the assay on SK-OV-3 it was 6.05 µM (inactive); with SN12C, 1.27 µM (inactive); in the assay on SNB-75, 3.4 µM (inactive); in the assay with T47D it was 1.61 µM (inactive); in the assay with U-251, 1.95 µM (inactive). For the same compound, the results for the GI50 in the assay with UACC-62 and in the assay with UO-31 were 7.16 µM (inactive) and 1.22 µM (inactive), respectively.

With `COC1=C(C)C(=O)c2c(c(COC(N)=O)c3n2CC(OC(C)=O)C3OC(C)=O)C1=O` (stereo not given), the GI50 with A498 was 0.593 µM (active); in the assay on CAKI-1, < 0.01 µM (active); in the assay on CCRF-CEM, 0.153 µM (active); with HCT-116, 0.0204 µM (active); with M14, 0.0977 µM (active); with MCF7, 0.0301 µM (active). The GI50 was 0.165 µM (active) with MDA-MB-435; 0.297 µM (active) in the assay with NCI-H226; 0.127 µM (active) in the assay on NCI/ADR-RES; 0.279 µM (active) with OVCAR-4; 0.0631 µM (active) in the assay on SF-295; 0.191 µM (active) with SK-MEL-2. Besides, the GI50 in the assay with SK-MEL-5 was 0.133 µM (active); in the assay with SK-OV-3, 0.41 µM (active); in the assay on SN12C, 0.0944 µM (active); in the assay on SNB-75 it was 0.208 µM (active); in the assay on T47D it was 0.757 µM (active); in the assay on U-251 it was 0.0944 µM (active). Also, the figures for the GI50 in the assay with UACC-62 and in the assay with UO-31 were 0.0857 µM (active) and 0.15 µM (active), respectively.

For `O=[N+]([O-])c1cc2oc(CSc3ccccc3)nc2cc1Cl`, the GI50 with A498 was 25.5 µM (inactive); in the assay with CAKI-1, 29 µM (inactive); with CCRF-CEM, 37.5 µM (inactive); with HCT-116, 29.4 µM (inactive); with M14 it was 32.9 µM (inactive); in the assay on MCF7, 42.8 µM (inactive). For the same compound, the GI50 in the assay on MDA-MB-435 is 32.4 µM (inactive); in the assay on NCI-H226, 29.6 µM (inactive); in the assay with NCI/ADR-RES, 12.9 µM (inactive); with OVCAR-4, 34.4 µM (inactive); in the assay with SF-295, 28.2 µM (inactive); in the assay on SK-MEL-2, 26 µM (inactive). In addition, the GI50 with SK-MEL-5 is 16.6 µM (inactive); in the assay with SK-OV-3, 29.5 µM (inactive); in the assay on SN12C, 29.9 µM (inactive); in the assay on SNB-75, 26.1 µM (inactive); in the assay on T47D it was 24.9 µM (inactive); with U-251, 23.6 µM (inactive). Also, the figures for the GI50 with UACC-62 and in the assay with UO-31 were 36.2 µM (inactive) and 35.9 µM (inactive), respectively.

For the origin of these results see ChEMBL document CHEMBL1201862, “PubChem BioAssay data set” (2004).
